Test results taken from patent US20060217368A1, “Drug for nerve regeneration” (Kyowa Hakko Kogyo Co., Ltd., priority 2003, published 2006).

Tests used:
Type in all cases: cell-based, rat
ANSC-7 cells [1] = experiment: Neuropoiesis of ANSC-7 adult neural stem cells: number of Tuj1 positive neurons after induction of differentiation
Method: ANSC-7 cells which can be obtained by the method described in Reference Example 2 are plated at 1.8×10^5 cells per well in a 12-well culture dish which was coated with polyornithine and laminin and was filled with a DMEM/F12 medium containing 1 ml of a 1% N2 supplement (manufactured by Invitrogen Corporation) and 20 ng/ml FGF-2 (manufactured by PeproTech Inc.), and incubated overnight. Entire culture fluid is changed into a DMEM/F12 medium containing 0.5% fetal bovine serum and a 1% N2 supplement without including FGF2 (manufactured by Invitrogen Corporation, hereinafter, referred to as differentiation inducing medium) to induce differentiation. Upon the induction, the substance that inhibits the activity of GSK-3 serially diluted in PBS (manufactured by Invitrogen Corporation) or DMSO in the range of from 0.01 mmol/l to […] is added thereto in 1/1000 volume. As a negative control, the same volume of PBS or DMSO is added.
After changing the culture fluid into the differentiation inducing medium supplemented with each substance that inhibits the activity of GSK-3 every three days, and inducing differentiation for 6 days, it is replaced with a 15% neutral buffered formalin solution (Wako Pure Chemical Industries, Ltd.) to allow fixation for 20 min. Thereafter, washing with PBS containing 0.3% Triton X-100 (manufactured by Nacalai Tesque, Inc.) for 5 min is repeated three times. Next, after blocking the cells using a 10% goat fetal serum diluted in PBS (manufactured by DAKO Corporation) for 2 hrs, a reaction is allowed with a mouse anti-Tuj1 (β tubulin isotype III) antibody (manufactured by Sigma-Aldrich Corporation) diluted 1000 times in PBS as a primary antibody at 4° C. for 16 hrs. Thereafter, washing with PBS containing 0.3% Triton X-100 for 5 min is repeated three times.
Next, a reaction is allowed with Alexa Fluor 488 conjugate goat anti-mouse IgG antibody (manufactured by Molecular Probes, Inc.) diluted 1000 times as a secondary antibody at room temperature for 2 hrs. At the same time, Bisbenzimide H 33342 Fluorochrome, Trihydrochloride (manufactured by CALBIOCHEM, hereinafter, described as H33342) is added thereto to give the final concentration of 1 μg/ml to stain the nucleus. After immersing in PBS, observation with an inverted fluorescence microscope (manufactured by Nikon Corporation) is conducted, and the number of Tuj1 positive cells per 2.44 mm^2 is counted.

GSK-3α = experiment: Amount of GSK-3α in ANSC-7 cells after siRNA introduction (Western blotting); details: 150 pmol per 1×10^6 ANSC-7 cells; 48 hrs following seeding
ANSC-7 cells [2] = experiment: Neuropoiesis of ANSC-7 adult neural stem cells: number of Tuj1 positive neurons after induction of differentiation; details: siRNA introduced into ANSC-7; day 6
ANSC-7 cells [3] = experiment: Suppression of neuropoiesis by associated beta amyloid peptide and relief by GSK-3 inhibitor (Tuj1 positive neurons); details: day 6
Method: A beta amyloid peptide (hereinafter, referred to as Aβ) is a principal component constituting senile plaques, and it is a substance which has been believed to be a cause of Alzheimer's disease [Proc. Nat. Acad. Sci., USA, 98, 11039-11041 (2001)]. Aβ [1-40] (manufactured by BIOSOURCE) was dissolved in 0.1% (v/v) trifluoroacetic acid (Manufactured by Nacalai Tesque, Inc.) to give 10 mg/ml, and incubated at 25° C. for 1 hour. Thereafter, the solution was diluted in PBS to give 0.5 mg/ml. The diluted solution was incubated at 25° C. for 24 hrs to allow the formation of an associated product [J. Biol. Chem., 276, 42027-42034 (2001)]. […] On day 2 and day 4 following the induction of differentiation, the entire medium was changed to the differentiation inducing medium alone, respectively, and the number of neurons was measured on day 6 following induction of the differentiation.
According to a similar method to that shown in Experimental Example 8, lithiumchloride at a final concentration of 3 mmol/l, or Kenpaullone at a final concentration of 2 μmol/l was added to a differentiation inducing medium containing the associated Aβ at a final concentration of 0.1 mg/ml upon inducing differentiation of the ANSC-7 cell, and the number of Tuj1 positive neurons on day 6 following inducing differentiation was analyzed.

ANSC-7 cells [4] = experiment: Apoptosis of ANSC-7 cells (in situ cell death detection kit, fluorescein); details: final concentration 0.1 mg/ml; 6 days; vs PBS
Method: According to the method described in the above section 7, lithium chloride was added to give the final concentration of 3 mmol/l into the medium containing ANSC-7 cells followed by culture for 6 days. ANSC-7 cells thus cultured after adding lithium chloride, and ANSC-7 cells cultured after adding PBS as a control were allowed to a reaction using an in situ cell death detection kit, fluorescein (manufactured by Roche Diagnostics K.K.) according to the attached protocol. The cells were observed using an inverted fluorescence microscope (manufactured by Nikon Corporation), and the number of apoptotic cell was counted per 2.44 mm^2.
According to a similar method to that shown in Experimental Example 8, ANSC-7 cells subjected to induction of differentiation for 6 days by a differentiation inducing medium containing the associated Aβ at the final concentration of 0.1 mg/ml, and ANSC-7 cells subjected to induction of differentiation by a medium containing PBS as a control were allowed to react using an in situ cell death detection kit, fluorescein (manufactured by Roche Diagnostics K.K.) according to the attached protocol. The cells were observed using an inverted fluorescence microscope (manufactured by Nikon Corporation), and the number of apoptotic cells per 2.44 mm^2 was counted.

[5] = final concentration 2 μmol/l, day 6
[6] = final concentration 5 μmol/l, day 6

Question: With [Cl-].[Na+] [sodium chloride] as the molecule, how does the “number of Tuj1 positive neurons relative to control” value (ANSC-7 cells [1]; final concentration 0.01 mmol/l, day 6 following induction of differentiation) read?
Answer: 1.0 times

Question: And the “number of Tuj1 positive neurons relative to control” value (ANSC-7 cells [1]; final concentration 0.1 mmol/l, day 6 following induction of differentiation)?
Answer: 1.1 times

Question: What about the “number of Tuj1 positive neurons relative to control” value (ANSC-7 cells [1]; final concentration 1 mmol/l, day 6 following induction of differentiation) of the same molecule?
Answer: 1.2 times

Question: What about the “number of Tuj1 positive neurons relative to control” value (ANSC-7 cells [1]; final concentration 3 mmol/l, day 6 following induction of differentiation) of the same molecule?
Answer: 1.2 times

Question: With CC[C@H](CO)Nc1nc(NCc2ccccc2)c2ncn(C(C)C)c2n1 [Roscovitine] as the molecule, how does the “number of Tuj1 positive neurons in comparison with the negative control” value (ANSC-7 cells [1]; [5]) read?
Answer: 1.0 times

Question: And the “number of Tuj1 positive neurons in comparison with the negative control” value (ANSC-7 cells [1]; [6])?
Answer: 1.2 times

Question: What about the “number of Tuj1 positive neurons in comparison with the negative control” value (ANSC-7 cells [1]; final concentration 10 μmol/l, day 6) of the same molecule?
Answer: 1.1 times

Question: “siRNA-B1: double stranded siRNA having SEQ ID NO: 14 and 15, specific for GSK-3β (chain 1 GUCAGUUACACAGACACUAUU; chain 2 UAGUGUCUGUGUAACUGACUU; listed as RNA, chemistry not given here)” was tested. Which “amount of GSK-3α” value (GSK-3α) did it give?
Answer: unchanged

Question: And the “number of Tuj1 positive neurons in comparison with the negative control siRNA” value (ANSC-7 cells [2])?
Answer: 2.5 times

Question: What does the source list for Cn1cc(C2=C(c3ccc(Cl)cc3Cl)C(=O)NC2=O)c2ccccc21 [SB-216763, 3-(2,4-dichlorophenyl)-4-(1-methylindole-3-yl)-1H-pyrrole-2,5-dione]?
Answer: number of Tuj1 positive neurons relative to control (ANSC-7 cells [1]; final concentration 0.3 μmol/l, day 6): 1.2 times; number of Tuj1 positive neurons relative to control (ANSC-7 cells [1]; final concentration 1.0 μmol/l, day 6): 1.8 times

Question: indirubin-3′-monoxime was tested. Which “number of Tuj1 positive neurons in comparison with the negative control” value (ANSC-7 cells [1]; final concentration 1 μmol/l, day 6) did it give?
Answer: 1.4 times

Question: For O=C1Cc2c([nH]c3ccc(Br)cc23)-c2ccccc2N1 [Kenpaullone, 9-bromo-7,12-dihydro-indolo[3,2-d][1]benzazepin-6(5H)-one], which “increase in number of Tuj1 positive neurons in comparison with associated Aβ alone” value (ANSC-7 cells [3]; 2 μmol/l with 0.1 mg/ml associated Aβ) is on record?
Answer: 400%

Question: And the “number of Tuj1 positive neurons in comparison with the negative control” value (ANSC-7 cells [1]; final concentration 0.5 μmol/l, day 6)?
Answer: 1.3 times

Question: And the “number of Tuj1 positive neurons in comparison with the negative control” value (ANSC-7 cells [1]; [5])?
Answer: 2.7 times

Question: And the “number of Tuj1 positive neurons in comparison with the negative control” value (ANSC-7 cells [1]; [6])?
Answer: 3.7 times

Question: With C=C[C@@]1(C)CC(=O)[C@]2(O)[C@@]3(C)[C@@H](O)CCC(C)(C)[C@@H]3[C@H](O)[C@H](OC(C)=O)[C@@]2(C)O1 [forskolin] as the molecule, how does the “rate of increase in neurons” value (ANSC-7 cells [1]; 1 μmol/l, coexistence with 3 mmol/l lithium chloride) read?
Answer: 1.2 times

Question: And the “rate of increase in neurons” value (ANSC-7 cells [1]; 1 μmol/l, without lithium chloride)?
Answer: 1.9 times

Question: And the “rate of increase in neurons” value (ANSC-7 cells [1]; 5 μmol/l, coexistence with 3 mmol/l lithium chloride)?
Answer: 1.1 times

Question: And the “rate of increase in neurons” value (ANSC-7 cells [1]; 5 μmol/l, without lithium chloride)?
Answer: 2.2 times

Question: Which “amount of GSK-3α” value (GSK-3α) does the source give for “siRNA-B2: double stranded siRNA having SEQ ID NO: 16 and 17, specific for GSK-3β (chain 1 GUCUAGCCUAUAUCCAUUCUU; chain 2 GAAUGGAUAUAGGCUAGACUU; listed as RNA, chemistry not given here)” here?
Answer: unchanged

Question: And the “number of Tuj1 positive neurons in comparison with the negative control siRNA” value (ANSC-7 cells [2])?
Answer: 1.9 times

Question: What does the source list for “associated Aβ: beta amyloid peptide Aβ [1-40] incubated to form an associated product”?
Answer: decrease in number of Tuj1 positive neurons (ANSC-7 cells [3]; final concentration 0.1 mg/ml, vs PBS): 78%; increase in number of apoptotic positive cells (ANSC-7 cells [4]): 14%
